These results are taken from patent US11279681B2, “3-alkyl bicyclic [4,5,0] hydroxamic acids as HDAC inhibitors” (Valo Health, Inc., priority 2015, dated 2022).

Bounds are passed on as bounds.

The test concerns the target T1, HDAC6 (Homo sapiens, UniProt Q9UBN7).
T1 sequence (Q9UBN7 1-1215): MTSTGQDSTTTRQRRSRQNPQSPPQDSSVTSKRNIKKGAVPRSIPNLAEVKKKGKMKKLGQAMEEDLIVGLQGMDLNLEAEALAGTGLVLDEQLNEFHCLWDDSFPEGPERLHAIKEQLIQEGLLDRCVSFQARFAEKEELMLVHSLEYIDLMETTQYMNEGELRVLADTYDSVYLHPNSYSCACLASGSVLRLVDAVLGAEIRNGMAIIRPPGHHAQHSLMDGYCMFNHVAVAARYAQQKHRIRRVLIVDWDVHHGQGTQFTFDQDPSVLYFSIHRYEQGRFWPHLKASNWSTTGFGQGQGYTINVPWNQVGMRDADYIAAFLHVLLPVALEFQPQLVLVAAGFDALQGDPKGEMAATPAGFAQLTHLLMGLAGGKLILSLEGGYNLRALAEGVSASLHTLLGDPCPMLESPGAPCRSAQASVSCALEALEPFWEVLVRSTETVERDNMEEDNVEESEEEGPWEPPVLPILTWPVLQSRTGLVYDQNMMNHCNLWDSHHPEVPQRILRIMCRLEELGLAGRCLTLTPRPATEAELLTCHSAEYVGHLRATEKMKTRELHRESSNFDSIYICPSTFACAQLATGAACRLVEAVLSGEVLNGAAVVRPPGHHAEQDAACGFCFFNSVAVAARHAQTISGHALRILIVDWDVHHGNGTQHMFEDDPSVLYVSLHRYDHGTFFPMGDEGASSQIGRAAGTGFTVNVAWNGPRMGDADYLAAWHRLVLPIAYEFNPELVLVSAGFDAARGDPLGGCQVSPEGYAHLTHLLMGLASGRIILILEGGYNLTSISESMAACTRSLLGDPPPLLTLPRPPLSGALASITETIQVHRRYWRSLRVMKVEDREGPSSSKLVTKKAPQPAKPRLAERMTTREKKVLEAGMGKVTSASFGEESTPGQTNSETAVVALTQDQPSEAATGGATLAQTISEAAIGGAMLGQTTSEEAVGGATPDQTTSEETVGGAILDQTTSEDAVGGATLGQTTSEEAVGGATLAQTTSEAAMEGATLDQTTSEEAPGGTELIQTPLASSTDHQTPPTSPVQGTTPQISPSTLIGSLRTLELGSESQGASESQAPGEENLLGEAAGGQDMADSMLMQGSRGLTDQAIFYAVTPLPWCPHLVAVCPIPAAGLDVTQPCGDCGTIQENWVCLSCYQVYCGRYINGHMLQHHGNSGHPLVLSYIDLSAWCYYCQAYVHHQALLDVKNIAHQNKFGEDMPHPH
The test is described as follows: In vitro histone deacetylase assay: enzymatic HDAC6 electrophoretic mobility shift assay. The test is classed as biochemical. The settings on record: full length human recombinant HDAC6, 1 nM enzyme, 2 μM peptide substrate RHKK(Ac)-NH2, 25° C.; read-out: Inhibitory Concentration (IC50) Values for Representative Compounds against HDAC6, Activity Range. A general note: In EMSA bound probe runs differently from free probe, usually more slowly.
With `CC(=O)N1CCCC(CN2CC(=O)Nc3ccc(C(=O)NO)cc3C2)C1` (stereo not drawn), the IC50 is more than 500 nM. Take `COc1ccc(S(=O)(=O)N2CCOc3nc(C(=O)NO)ccc3C2)cc1`: the IC50 was more than 500 nM. Under `C[C@H]1COc2cc(C(=O)NO)ccc2CN1Cc1ccc(F)cc1` [(S)-4-(4-fluorobenzyl)-N-hydroxy-3-methyl-2,3,4,5-tetrahydrobenzo[f][1,4]oxazepine-8-carboxamide] stands not above 100 nM.
